Measured values taken from PubChem BioAssay (NCI).
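Exposure lasted 48 hours, with cells grown in 96-well plates and compounds tested at five concentrations. The concentration for full growth arrest is given as TGI.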

Tests used:
Test in all cases: DTP human tumour cell line panel, 48 h
786-0 renal = system: 786-0 renal
A498 renal = system: A498 renal
A549 NSCLC = system: A549 NSCLC
ACHN renal = system: ACHN renal
CCRF-CEM leukemia = system: CCRF-CEM leukemia
COLO 205 colon = system: COLO 205 colon
DLD-1 colon = system: DLD-1 colon
DMS 114 small cell lung = system: DMS 114 small cell lung
DMS 273 small cell lung = system: DMS 273 small cell lung
EKVX NSCLC = system: EKVX NSCLC
HCC-2998 colon = system: HCC-2998 colon
HCT-116 colon = system: HCT-116 colon
HL-60(TB) leukemia = system: HL-60(TB) leukemia
HOP-62 NSCLC = system: HOP-62 NSCLC
HOP-92 NSCLC = system: HOP-92 NSCLC
HT29 colon = system: HT29 colon
IGROV1 ovarian = system: IGROV1 ovarian
K-562 leukemia = system: K-562 leukemia
KM12 colon = system: KM12 colon
KM20L2 colon = system: KM20L2 colon
LOX IMVI melanoma = system: LOX IMVI melanoma
LXFL 529 NSCLC = system: LXFL 529 NSCLC
M14 melanoma = system: M14 melanoma
M19-MEL melanoma = system: M19-MEL melanoma
MALME-3M melanoma = system: MALME-3M melanoma
MOLT-4 leukemia = system: MOLT-4 leukemia
NCI-H23 lung = system: NCI-H23 lung
NCI-H460 lung = system: NCI-H460 lung
NCI-H522 lung = system: NCI-H522 lung
OVCAR-3 ovarian = system: OVCAR-3 ovarian
OVCAR-5 ovarian = system: OVCAR-5 ovarian
OVCAR-8 ovarian = system: OVCAR-8 ovarian
RPMI-8226 leukemia = system: RPMI-8226 leukemia
RXF 393 renal = system: RXF 393 renal
RXF-631 renal = system: RXF-631 renal
SF-539 CNS = system: SF-539 CNS
SK-MEL-2 melanoma = system: SK-MEL-2 melanoma
SK-MEL-28 melanoma = system: SK-MEL-28 melanoma
SK-MEL-5 melanoma = system: SK-MEL-5 melanoma
SK-OV-3 ovarian = system: SK-OV-3 ovarian
SNB-75 CNS = system: SNB-75 CNS
SNB-78 CNS = system: SNB-78 CNS
SW-620 colon = system: SW-620 colon
TK-10 renal = system: TK-10 renal
U251 CNS = system: U251 CNS
UACC-257 melanoma = system: UACC-257 melanoma
UACC-62 melanoma = system: UACC-62 melanoma
UO-31 renal = system: UO-31 renal
XF 498 CNS = system: XF 498 CNS
CAKI-1 renal = system: CAKI-1 renal
HCT-15 colon = system: HCT-15 colon
HOP-18 NSCLC = system: HOP-18 NSCLC
NCI-H226 lung = system: NCI-H226 lung
OVCAR-4 ovarian = system: OVCAR-4 ovarian
SF-268 CNS = system: SF-268 CNS
SF-295 CNS = system: SF-295 CNS
SN12C renal = system: SN12C renal
SNB-19 CNS = system: SNB-19 CNS
SR leukemia = system: SR leukemia

Measured: TGI

CSCCC(C(=O)O)N(CC1(O)OCC(O)C(O)C1O)N=O (centres undefined)
not listed: CAKI-1 renal | HCT-15 colon | HOP-18 NSCLC | NCI-H226 lung | OVCAR-4 ovarian | SF-268 CNS | SF-295 CNS | SN12C renal | SNB-19 CNS | SR leukemia
> 100 µM: all other assays above

COc1c2c(cc3c1C(=O)Cc1ccc4c(c1CN(C)CC3)OCO4)OCO2
not listed: A498 renal | DMS 273 small cell lung | LXFL 529 NSCLC | XF 498 CNS
> 100 µM: all other assays above
